According to patent US8642611B2, “Alkynylpyrimidines and salts thereof, pharmaceutical compositions comprising same, methods of preparing same and uses of same” (Bayer Intellectual Property GmbH, priority 2007, dated 2014):

Key:
CDK2/CycE = biological target: T1, CDK2/CycE (Homo sapiens, UniProt P24941); assay: CDK2/Cyclin E Kinase Assay; assay type: biochemical; conditions: CDK2/CycE HTRF, 10 μM ATP; read-out: CDK2 activity (assay 6)
T1 construct: GST; purchased ProQinase GmbH (Freiburg, Germany); host or cells: insect cells (Sf9)
Source text: Assay 6: CDK2/Cyclin E Kinase Assay
CDK2/CyclinE—inhibitory activity of compounds of the present invention was quantified employing the CDK2/CycE HTRF assay as described in the following paragraphs.
Recombinant fusion proteins of GST and human CDK2 and of GST and human CycE, expressed in insect cells (Sf9) and purified by Glutathion-Sepharose affinity chromatography, were purchase from ProQinase GmbH (Freiburg, Germany). As substrate for the kinase reaction biotinylated peptide biotin-Ttds-YISPLKSPYKISEG (C-terminus in amid form) was used which can be purchased e.g. form the company JERINI peptide technologies (Berlin, Germany).
CDK2/CycE was incubated for 60 min at 22° C. in the presence of different concentrations of test compounds in 5 μl assay buffer [50 mM Tris/HCl pH 8.0, 10 mM MgCl2, 1.0 mM dithiothreitol, 0.1 mM sodium ortho-vanadate, 10 μM adenosine-tri-phosphate (ATP), 0.75 μM substrate, 0.01% (v/v) Nonidet-P40 (Sigma), 1% (v/v) dimethylsulfoxide]. The concentration of CDK2/CycE was adjusted depending of the activity of the enzyme lot and was chosen appropriate to have the assay in the linear range, typical concentrations were in the range of 1 ng/ml. The reaction was stopped by the addition of 5 μl of a solution of HTRF detection reagents (0.2 μM streptavidine-XLent and 3.4 nM Phospho-(Ser) CDKs Substrate Antibody [product #2324B, Cell Signaling Technology, Danvers, Mass., USA} and 4 nM Prot-A-EuK [Protein A labeled with Europium Cryptate from Cis biointernational, France, product no. 61PRAKLB]) in an aqueous EDTA-solution (100 mM EDTA, 800 mM KF, 0.2% (w/v) bovine serum albumin in 100 mM HEPES/NaOH pH 7.0).
The resulting mixture was incubated 1 h at 22° C. to allow the formation of complex between the phosphorylated biotinylated peptide and the detection reagents. Subsequently the amount of phosphorylated substrate was evaluated by measurement of the resonance energy transfer from the Prot-A-EuK to the streptavidine-XLent. Therefore, the fluorescence emissions at 620 nm and 665 nm after excitation at 350 nm was measured in a HTRF reader, e.g. a Rubystar (BMG Labtechnologies, Offenburg, Germany) or a Viewlux (Perkin-Elmer). The ratio of the emissions at 665 nm and at […] was taken as the measure for the amount of phosphorylated substrate. The data were normalised (enzyme reaction without inhibitor=0% inhibition, all other assay components but no enzyme=100% inhibition) and IC50 values were calculated by a 4 parameter fit using an inhouse software.

human KDR = biological target: T2, human KDR (Homo sapiens, UniProt P35968); assay: VEGFR2 Kinase (KDR) HTRF Assay; assay type: biochemical; conditions: GST-tagged kinase domain of human KDR, 10 μM ATP; read-out: KDR activity (assay 4)
T2 construct: GST-tagged recombinant kinase domain of the human KDR; GST; made in house; host or cells: SF-9 insect cells
T2 sequence (P35968 834-1162 limits assumed): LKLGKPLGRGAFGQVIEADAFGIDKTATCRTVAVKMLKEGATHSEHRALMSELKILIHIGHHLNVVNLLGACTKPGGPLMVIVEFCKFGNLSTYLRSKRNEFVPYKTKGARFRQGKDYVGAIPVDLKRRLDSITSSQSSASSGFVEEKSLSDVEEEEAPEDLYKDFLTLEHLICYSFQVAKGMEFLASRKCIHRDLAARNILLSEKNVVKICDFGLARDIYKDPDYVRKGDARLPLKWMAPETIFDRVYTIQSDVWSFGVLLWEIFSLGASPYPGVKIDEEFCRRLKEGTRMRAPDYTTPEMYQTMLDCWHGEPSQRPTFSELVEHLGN
Source text: Assay 4: VEGFR2 Kinase (KDR) HTRF Assay
KDR inhibitory activity of compounds of the present invention was quantified employing the KDR HTRF assay as described in the following paragraphs.
GST-tagged recombinant kinase domain of the human KDR expressed in SF-9 cells was used as kinase. As substrate for the kinase reaction the biotinylated peptide biotin-Ahx-DFGLARDMYDKEYYSVG (C-terminus in acid form) was used which can be purchased e.g. form the company Biosynthan GmbH (Berlin-Buch, Germany). KDR was incubated for 45 min at 22° C. in the presence of different concentrations of test compounds in 5 μl assay buffer [50 mM Hepes/NaOH pH 7.0, 25 mM MgCl2, 5 mM MnCl2, 1.0 mM dithiothreitol, 0.1 mM sodium ortho-vanadate, 10 μM adenosine-tri-phosphate (ATP), 0.5 μM substrate, 0.001% (v/v) Nonidet-P40 (Sigma), 1% (v/v) dimethylsulfoxide]. The concentration of KDR was adjusted depending of the activity of the enzyme lot and was chosen appropriate to have the assay in the linear range. The reaction was stopped by the addition of 5 μL of a solution of HTRF detection reagents (0.1 μM streptavidine-XLent and 2 nM PT66-Eu-Chelate, an europium-chelate Labelled anti-phospho-tyrosine antibody from Perkin Elmer) in an aqueous EDTA-solution (125 mM EDTA, 0.2% (w/v) bovine serum albumin in 50 mM HEPES/NaOH pH 7.0).
The resulting mixture was incubated 1 h at 22° C. to allow the binding of the biotinylated phosphorylated peptide to the streptavidine-XLent and the PT66-Eu-Chelate. Subsequently the amount of phosphorylated substrate was evaluated by measurement of the resonance energy transfer from the PT66-Eu-Chelate to the streptavidine-XLent. Therefore, the fluorescence emissions at 620 nm and 665 nm after excitation at 350 nm was measured in a HTRF reader, e.g. a Rubystar (BMG Labtechnologies, Offenburg, Germany) or a ViewLux (Perkin-Elmer). The ratio of the emissions at 665 nm and at […] was taken as the measure for the amount of phosphorylated substrate. The data were normalised (enzyme reaction without inhibitor=0% inhibition, all other assay components but no enzyme=100% inhibition) and IC50 values were calculated by a 4 parameter fit using an inhouse software.

Row | SMILES | IC50 (CDK2/CycE) | IC50 (human KDR)
1 | Cc1cc(C#Cc2cnc(Nc3cccc(S(C)(=N)=O)c3)nc2N[C@H](C)CO)ccc1F (mixture of isomers) [Example 1.20, (RS)-S-(3-[5-(4-Fluoro-3-methyl-phenyl-ethynyl)-4-((R)-2-hydroxy-1-methyl-ethylamino)-pyrimidin-2-ylamino]-phenyl)-S-methylsulfoximide] |  | < 0.5 µM
2 | Cc1ccccc1C#Cc1cnc(Nc2ccc(S(C)(=N)=O)cc2)nc1N[C@H](C)CO (mixture of isomers) [Example 1.3] | 1 to 10 µM | < 0.5 µM
3 | Cc1ccc(C#Cc2cnc(Nc3ccc(S(C)(=N)=O)cc3)nc2N[C@H](C)CO)cc1 (mixture of isomers) [Example 1.5] | 1 to 10 µM | < 0.5 µM
4 | CCNc1nc(Nc2ccc(S(C)(=N)=O)cc2)ncc1C#Cc1ccc(F)c(C)c1 (racemic) [Example 1.24, (RS)-S-(4-[4-ethylamino-5-(4-fluoro-3-methyl-phenyl-ethynyl)-pyrimidin-2-ylamino]-phenyl)-S-methylsulfoximide] | > 10 µM | < 0.5 µM
5 | CCNc1nc(Nc2ccc(S(C)(=N)=O)cc2)ncc1C#Cc1ccc(OC)cc1 (racemic) [Example 1.26, (RS)-S-(4-[4-ethylamino-5-(4-methoxy-phenyl-ethynyl)-pyrimidin-2-ylamino]-phenyl)-S-methylsulfoximide] | > 10 µM | < 0.5 µM
6 | CCOC(=O)N=S(C)(=O)c1ccc(Nc2ncc(C#Cc3cccc(O)c3)c(N[C@H](C)CO)n2)cc1 (mixture of isomers) [Example 2.7] | 1 to 10 µM | < 0.5 µM
7 | CS(=N)(=O)c1cccc(Nc2ncc(C#Cc3cccc(O)c3)cn2)c1 (racemic) [Example 4.2, (RS)—S-(3-[5-(3-hydroxy-phenylethynyl)-pyrimidin-2-ylamino]-phenyl)-S-methylsulfoximide] | > 10 µM | < 0.5 µM

The remaining lines, values ahead:

Row | IC50 (CDK2/CycE) | IC50 (human KDR) | SMILES
8 | > 10 µM | < 0.5 µM | COc1ccc(C#Cc2cnc(Nc3ccc(S(C)(=N)=O)cc3)nc2N[C@H](C)CO)cc1 (mixture of isomers) [Example 1.1, (RS)—S-(4-[4-((R)-2-Hydroxy-1-methyl-ethylamino)-5-(4-methoxy-phenylethynyl)-pyrimidin-2-ylamino]-phenyl)-S-methylsulfoximide]
9 | > 10 µM | < 0.5 µM | C[C@H](CO)Nc1nc(Nc2ccc(S(C)(=N)=O)cc2)ncc1C#Cc1ccccc1 (mixture of isomers) [Example 1.2, (RS)-S-(4-[4-((R)-2-Hydroxy-1-methyl-ethylamino)-5-(phenylethynyl)-pyrimidin-2-ylamino]-phenyl)-S-methylsulfoximide]
10 | > 10 µM | < 0.5 µM | CCc1ccc(C#Cc2cnc(Nc3ccc(S(C)(=N)=O)cc3)nc2N[C@H](C)CO)cc1 (mixture of isomers) [Example 1.8, (RS)-S-(4-[5-(4-Ethyl-phenylethynyl)-4-((R)-2-hydroxy-1-methyl-ethylamino)-pyrimidin-2-ylamino]-phenyl)-S-methylsulfoximide]
11 | > 10 µM | < 0.5 µM | C[C@H](CO)Nc1nc(Nc2ccc(S(C)(=N)=O)cc2)ncc1C#Cc1ccc(F)cc1 (mixture of isomers) [Example 1.9, (RS)-S-(4-[5-(4-Fluoro-phenyl-ethynyl)-4-((R)-2-hydroxy-1-methyl-ethylamino)-pyrimidin-2-ylamino]-phenyl)-S-methylsulfoximide]
12 | > 10 µM | < 0.5 µM | Cc1cc(C#Cc2cnc(Nc3ccc(S(C)(=N)=O)cc3)nc2N[C@H](C)CO)ccc1F (mixture of isomers) [Example 1.13, (RS)-S-(4-[5-(4-Fluoro-3-methyl-phenyl-ethynyl)-4-((R)-2-hydroxy-1-methyl-ethylamino)-pyrimidin-2-ylamino]-phenyl)-S-methylsulfoximide]
13 | 1 to 10 µM | < 0.5 µM | CC(C)NC(=O)N=S(C)(=O)c1cccc(Nc2ncc(C#Cc3cccc(O)c3)c(N[C@H](C)CO)n2)c1 (mixture of isomers) [Example 1.15, (RS)-S-(3-[4-((R)-2-Hydroxy-1-methyl-ethylamino)-5-(3-hydroxy-phenylethynyl)-pyrimidin-2-ylamino]-phenyl)-N-(isopropylcarbamoyl)-S-methylsulfoximide]
14 | > 10 µM | < 0.5 µM | COc1ccc(C#Cc2cnc(Nc3cccc(S(C)(=N)=O)c3)nc2N[C@H](C)CO)cc1 (mixture of isomers) [Example 1.17, (RS)-S-(3-[4-((R)-2-Hydroxy-1-methyl-ethylamino)-5-(4-methoxy-phenylethynyl)-pyrimidin-2-ylamino]-phenyl)-S-methylsulfoximide]
15 | 1 to 10 µM | < 0.5 µM | C[C@H](CO)Nc1nc(Nc2cccc(S(C)(=N)=O)c2)ncc1C#Cc1cccc(O)c1 (mixture of isomers) [Example 1.18, (RS)-S-(3-[4-((R)-2-Hydroxy-1-methyl-ethylamino)-5-(3-hydroxy-phenylethynyl)-pyrimidin-2-ylamino]-phenyl)-S-methylsulfoximide]
16 |  | < 0.5 µM | Cc1ccccc1C#Cc1cnc(Nc2cccc(S(C)(=N)=O)c2)nc1N[C@H](C)CO (mixture of isomers) [Example 1.19, (RS)-S-(3-[4-((R)-2-Hydroxy-1-methyl-ethylamino)-5-(2-methyl-phenylethynyl)-pyrimidin-2-ylamino]-phenyl)-S-methylsulfoximide]
